Source: article PMC8704315, “Lichen-Derived Compounds and Extracts as Biologically Active Substances with Anticancer and Neuroprotective Properties” (Pharmaceuticals, 2021)
Values joined by “and” are separate entries in the source; they are usually repeats but may differ in a detail not shown here. Equal entries are not always repeated. “Also recorded” adds a separate entry of the source. Where two headings read alike, the source gives them in different places.

Key:
A-172 cell line = assay: MTT cell viability assay, 48 h, A-172; assay type: cell-based, Human; details: for IC50: Homo sapiens, read-out: IC50 A-172
T98G cell line = assay: MTT cell viability assay, 48 h, T98G; assay type: cell-based, Human; details: for IC50: Homo sapiens, T98G, read-out: IC50 T98G
Procedure: Stock solutions in dimethylsulfoxide DMSO (Sigma-Aldrich, St. Louis, MO, USA), (10 mM for compounds and 10 mg/mL for extracts) were prepared and stored at −20 °C. For the experiments, the stock solutions were diluted ex tempore to the final selected concentration with complete cell culture medium.
Human glioblastoma A-172 and T98G cell lines were purchased from the American Type Culture Collection (ATCC, Manassas, VA, USA), and the European Collection of Authenticated Cell Cultures (ECACC, Salisbury, UK), respectively. The cells were grown at 37 °C in 95% humidified and 5% CO2 atmosphere. Media recommended by the provider were used to cultivate the cells: ATCC-formulated Dulbecco’s modified Eagle’s medium (DMEM) (Sigma Aldrich, St. Louis, MO, USA), and ATCC-formulated Eagle’s Minimum Essential Medium (EMEM) (Sigma-Aldrich, St. Louis, MO, USA) were used for A-172 and T98G cells, respectively. Moreover, the media were supplemented with 10% fetal bovine serum (FBS) (Biowest, France) and 1% antibiotics (penicillin and streptomycin) solution (Sigma-Aldrich, St. Louis, MO, USA). The medium for the T98G cell line was additionally supplemented with 2 mM glutamine, 1% non-essential amino acids, and 1% sodium pyruvate (all obtained from Sigma Aldrich, St. Louis, MO, USA). For the experiments, the amount of FBS was reduced to 5%. All experiments were carried out 24 h after the cells were seeded on 96-well plates.
The effect of the tested compounds and extracts on GBM cell viability was assessed by measuring the ability of cells to metabolize 3-(4,5-dimethylthiazol-2-yl)-2,5-diphenyl-tetrazolium bromide (MTT), as previously described. In brief, 1 × 10^4 cells per well were seeded on 96-well plates. After 24 h incubation, they were treated with varying concentrations of lichen-derived compounds (1, 5, 10, 25, 50 and 100 µM) and extracts (1, 5, 10, 25, 50 and 100 µg/mL). Cells treated with medium containing the respective concentrations of DMSO (Sigma-Aldrich, St. Louis, MO, USA) were used as a control. After 48 h incubation the cells were washed with phosphate-buffered saline (PBS) buffer and incubated for 4 h in the presence of PBS containing 0.5 mg/mL MTT salt (Merck, Darmstadt, Germany). Next, the formazan crystals were dissolved in acidic isopropanol. In order to enhance dissolution of formazan crystals the plates were shaken on the orbital shaker for 30 min. Finally, the absorbance was measured at λ = 570 nm and λ = 690 nm on the microplate reader (Tecan Infinite M200). All the experiments were repeated three times with at least four measurements per assay.

[1] = target: T1, indoleamine 2,3-dioxygenases 1 (IDO1) (Homo sapiens, UniProt P14902); assay: Universal IDO1/IDO2/TDO Inhibitor Screening Assay Kit, IDO1; assay type: biochemical; details: ± SEM, three measurements
T1 construct: purchased BPS Bioscience, Inc. (San Diego, CA, USA)

[2] = target: T2, tryptophan 2,3-dioxygenase (TDO) (Homo sapiens, UniProt P48775); assay: Universal IDO1/IDO2/TDO Inhibitor Screening Assay Kit, TDO; assay type: biochemical; details: for inhibition at 100 µg/mL: read-out: Inhibition (%) TDO
T2 construct: purchased BPS Bioscience, Inc. (San Diego, CA, USA)
Procedure: This colorimetric assay is based on the measurement of the ability of IDO1, IDO2 and TDO to convert L-tryptophan into N-formylkynurenine (NFK). The experiments were performed according to the manufacturer’s guidelines. The final concentration of the compounds and extracts in the reaction mixture was 100 µg/mL. The amount of NFK was measured spectrophotometrically at 320 nm using an Epoch BioTek microplate reader (BioTek Instruments, Inc., Winooski, VT, USA). The samples were run in triplicate and the results were expressed as mean ± SEM.

[3] = DPPH radical scavenging assay; details: highest concentration 750.0 µg/mL for substances, 2500.0 µg/mL for extracts; ± SEM, n = 3
[4] = tested on: Superoxide dismutase (SOD); assay: Effect on superoxide dismutase activity; assay type: biochemical; details: 537.6 μg/mL reaction mixture, ± SEM, n = 3
Procedure: Sample (50 µL, 5 mg/mL of pure DMSO) was mixed with 10 μL SOD (0.24 U), 160 μL nitrobluetatrazolium solution (0.0025 M), 205 μLphosphate buffer (0.2 M, pH 7.5), 30 μL xanthine (150 mM in 1 M NaOH) and 0.01 mL xanthine oxidase (0.065 U, Sigma Aldrich X4875). The change in the absorbance at 550 nm was measured in tested samples vs. controls without the studied sample after […] of incubation and the effect on the enzyme was calculated using the equation [74]: (3) Inhibition [%]=100 – 100×(Abs. 30 min – Abs. 0 min)/(Abs. control. 30 min – Abs. control 0 min)

[5] = target: T3, glutathione peroxidase (GPx) (Bos taurus, UniProt P00435); assay: Effect on glutathione peroxidase activity; assay type: biochemical; details: for inhibition at 243.9 µg/mL: read-out: GPx Inhibition under Reaction Conditions (%)
T3 construct: purchased Sigma G6137
T3 sequence (P00435 1-205): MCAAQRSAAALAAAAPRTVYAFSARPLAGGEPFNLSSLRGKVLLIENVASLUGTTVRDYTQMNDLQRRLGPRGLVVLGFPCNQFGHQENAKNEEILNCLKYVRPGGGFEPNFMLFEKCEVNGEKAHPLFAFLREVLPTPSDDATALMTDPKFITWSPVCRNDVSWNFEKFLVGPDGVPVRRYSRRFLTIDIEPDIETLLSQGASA
Procedure: Sample (20 µL, 5 mg/mL of pure DMSO) was mixed with 8 μL of EDTA solution, 10 μL of glutathione reductase (0.2 U Sigma G3664), 4 μL of GSH solution, 10 μL of glutathione peroxidase (0.04 U Sigma G6137), 22 μL of H2O2 and 332 μL of 50 mM sodium phosphate, pH 7.0). To start the reaction, 4 μL of NADPH solution (N5130) was added and the decrease in the absorbance (340 nm) was read after 10 min of incubation at 25 °C. All solutions were prepared in 50 mM buffer and concentrations of reagents in the final mixture were as follows: 1mM EDTA, 0.2 U glutathione reductase, 2 mM GSH, 0.04 U glutathione peroxidase, 1.5 mM H2O2 and 0.8 mM NADPH. Blank sample was prepared with buffer instead of the studied sample and background was measured (mixture containing studied sample and buffer only). One unit of enzyme activity was defined as nMol of NADPH consumed/min·mL sample, in comparison with nMol of NADPH consumed/min in blank (reagent) sample [76].

[6] = A 172, 48 h treatment, MTT, ± SEM
[7] = 100 µg/mL, read-out: Inhibition (%) IDO1
[8] = 243.9 μg/mL in the reaction mixture

T2 sequence (P48775 whole entry, species assumed): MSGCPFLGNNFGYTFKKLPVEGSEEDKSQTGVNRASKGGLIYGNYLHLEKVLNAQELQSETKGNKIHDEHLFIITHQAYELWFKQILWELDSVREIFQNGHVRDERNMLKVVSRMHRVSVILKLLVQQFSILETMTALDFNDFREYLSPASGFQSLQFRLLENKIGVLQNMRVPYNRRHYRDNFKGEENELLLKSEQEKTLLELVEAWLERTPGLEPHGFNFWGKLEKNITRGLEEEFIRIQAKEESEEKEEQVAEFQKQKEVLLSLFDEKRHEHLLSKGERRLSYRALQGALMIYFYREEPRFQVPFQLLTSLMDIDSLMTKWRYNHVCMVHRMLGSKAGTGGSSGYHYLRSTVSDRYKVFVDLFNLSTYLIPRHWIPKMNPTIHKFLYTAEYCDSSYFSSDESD
T1 sequence (P14902 whole entry, species assumed): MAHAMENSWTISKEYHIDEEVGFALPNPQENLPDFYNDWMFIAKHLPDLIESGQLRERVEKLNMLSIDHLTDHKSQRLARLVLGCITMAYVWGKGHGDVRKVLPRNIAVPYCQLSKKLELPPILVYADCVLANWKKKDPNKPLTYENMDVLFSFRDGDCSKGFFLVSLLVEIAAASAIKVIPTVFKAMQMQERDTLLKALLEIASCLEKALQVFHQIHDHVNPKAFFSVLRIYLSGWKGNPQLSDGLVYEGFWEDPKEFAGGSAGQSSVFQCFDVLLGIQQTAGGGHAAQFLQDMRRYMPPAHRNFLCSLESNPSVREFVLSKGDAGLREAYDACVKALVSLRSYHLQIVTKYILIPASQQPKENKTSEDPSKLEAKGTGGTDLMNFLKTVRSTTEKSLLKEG

Structure (SMILES) | IC50 (A-172 cell line; [6]) | IC50 (T98G cell line; 48 h treatment, MTT, ± SEM) | Inhibition (%) IDO1 ([1]; 100 µg/mL) | inhibition at 100 µg/mL [1, 7] | inhibition at 100 µg/mL ([2]; 100 µg/mL) | DPPH IC50 [3] | SOD Inhibition (%) [4] | GPx Inhibitory Activity (nMol Depleted NADPH/min Incubation) [5, 8] | other results
Cc1cc(O)c(C=O)c2c1C(=O)Oc1c(CO)c(O)c3c(c1O2)C(O)OC3=O (centres unmarked) [Salazinic acid, salazinic acid] | > 38.8 µg/mL and > 100 µM | > 38.8 µg/mL and > 100 µM | did not exhibit any inhibition effect; also recorded: not active | < 10% | < 10% | >750.0 µg/mL | 19.4 ± 0.3% |  | Inhibition (%) TDO ([2]; 100 µg/mL): did not exhibit any inhibition effect; SOD Inhibition (%) ([4]; listed as salazinic acid): ~ 20%; GPx Inhibition under Reaction Conditions (%) [5, 8]: -
CC(=O)C1=C(O)C=C2Oc3c(C(C)=O)c(O)c(C)c(O)c3C2(C)C1=O (single isomer, unassigned; (-)) [(−)-Usnic acid, (−)-usnic acid] |  |  | 21.6 ± 0.9% |  |  | >750.0 µg/mL | 19.6 ± 0.6% | 27.3 ± 1.3 nMol Depleted NADPH/min Incubation | IC50 (A-172 cell line; A 172, 48 h): 31.5 µg/mL and 91.4 µM; IC50 (T98G cell line; 48 h): 13 µg/mL and 37.8 µM; inhibition at 100 µg/mL ([1]; read-out: Inhibition (%) IDO1, 100 µg/mL): 21.6 ± 0.85%; inhibition at 100 µg/mL [2]: < 10%; SOD Inhibition (%) ([4]; listed as (−)-usnic acid): ~ 20%; inhibition at 243.9 µg/mL [5]: 13.7 ± 2.3%
COc1cc(C)c(C(=O)Oc2cc(C)c(C(=O)O)c(O)c2)c(O)c1 [Evernic acid, evernic acid] | > 33.2 µg/mL and > 100 µM | > 33.2 µg/mL and > 100 µM | 32.8 ± 1.9% | 32.8 ± 1.93% | < 10% | >750.0 µg/mL | 21.2 ± 0.0% | 39.9 ± 1.0 nMol Depleted NADPH/min Incubation | cell viability A-172 (A-172 cell line; 10–100 µM, compared to vehicle-treated control): ~ 80%; reduction in cell viability T98G (T98G cell line; highest tested concentration (100 µM), 48 h MTT): ~ 20%; SOD Inhibition (%) ([4]; listed as evernic acid): ~ 20%; inhibition at 243.9 µg/mL [5, 8]: 20 ± 2.1%
